6 compounds from publication PMC11375437, “Selective labelling of GBA2 in cells with fluorescent β-D-arabinofuranosyl cyclitol aziridines” (Chemical Science, 2024) can be followed below.

As a reminder, the IC50 is the concentration that gives 50% inhibition.

This test concerns the target T1, GBA3 (Homo sapiens, UniProt Q9H227).
T1 construct: expressed in transfected cells; host or cells: HEK293T GBA1/GBA2 KO, GBA3 overexpressed
T1 sequence (Q9H227 1-469): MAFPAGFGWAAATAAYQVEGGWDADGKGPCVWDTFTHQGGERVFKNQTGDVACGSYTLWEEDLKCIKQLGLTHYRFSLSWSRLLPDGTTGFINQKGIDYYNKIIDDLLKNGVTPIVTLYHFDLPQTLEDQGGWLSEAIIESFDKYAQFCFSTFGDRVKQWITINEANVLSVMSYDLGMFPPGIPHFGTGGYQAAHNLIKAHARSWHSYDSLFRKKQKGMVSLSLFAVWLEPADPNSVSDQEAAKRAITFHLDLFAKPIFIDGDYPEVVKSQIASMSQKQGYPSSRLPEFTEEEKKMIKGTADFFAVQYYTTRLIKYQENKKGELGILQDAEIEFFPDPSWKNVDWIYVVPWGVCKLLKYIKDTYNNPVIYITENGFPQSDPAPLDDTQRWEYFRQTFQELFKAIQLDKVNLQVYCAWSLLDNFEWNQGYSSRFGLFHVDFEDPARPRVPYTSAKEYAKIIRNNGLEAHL
Description: 4MU fluorogenic substrate assay for apparent IC50, GBA3. The test is classed as biochemical. The conditions noted are these: 30 min pre-incubation, 4MU-β-D-Glc. The text has this: To identify an ABP that selectively labels human GBA2 over GBA1 and GBA3, a library of cyclophellitol-based ABPs with varying configurations (ESI Fig. S1 ^†) was screened for their selectivity towards human retaining β-glucosidases. For this purpose, we initially assessed the inhibition properties of the compounds using recombinant human GBA1 (rhGBA1, imiglucerase), lysates of cells overexpressing GBA2 or GBA3 (both in combination with knockout of the other retaining β-glucosidases). In a preliminary screen, enzymes were pre-incubated for 30 min with the tested compounds, followed by the addition of the fluorogenic substrate, 4MU-β-D-Glc, and subsequent quantification of released fluorescent 4MU after 30 minutes. This screening brought our attention to a new set of β-D-Araf cyclitol aziridines as potential GBA2 inhibitors. […] On the other hand, the biotin-tagged β-D-Araf compound 6 is a poor inhibitor of all three glucosidases (apparent IC50 > 8 μM). Arabinofuranosyl cyclitol 12–20 with various configurations (α-L-Araf and β-L-Araf) were also evaluated (ESI Fig. S1 ^†).
Recombinant human GBA1 (rhGBA1, Imiglucerase) was kindly provided by Sanofi Genzyme (Cambridge, MA, USA). 4-Methylumbelliferyl-β-D-glucopyranoside substrates were purchase from Glycosynth (Warrington Cheshire, UK). Protein concentration was measured using the Pierce BCA assay kit (Thermo Fisher Scientific, Waltham, MA, USA). Harvested cells (cell pellets), cell lysates and tissue homogenates not used directly were stored at -80 °C.
HEK293T (CRL‐3216™) cells were purchased from ATCC (Manassas, VA, USA). HEK293T cells were cultured in DMEM medium (Sigma‐Aldrich), supplied with 10% (v/v) FCS, 0.1% (w/v) penicillin/streptomycin and 1% (v/v) Glutamax, under 37 °C and 5% or 7% CO2. […]
2.3 Generation of cells genetically modified for β-glucosidase expression For overexpression of the different β-glucosidases, "wildtype" HEK293T cells, HEK293T cells with GBA2 knockout (KO) or HEK293T cells with both GBA1 and GBA2 KO were used, following by the overexpression (OE) of targeted β-glucosidases using the constructs as described in references.1,2 Either GBA2 or GBA3 were overexpressed in GBA1/GBA2 KO HEK293T (generated by the CRISPR/Cas9 method2) to generate GBA1/2 KOs with GBA2 (or GBA3) for overexpression in HEK293T cells as indicated, or using "wildtype" HEK293T cells containing endogenous GBA1 and GBA2 to overexpress both GBA2 and GBA3, these were generated as described in our previous report.1,2 […]
Cells were cultured with the method described above to 80-90% confluency, and were isolated, washed with Dulbecco′s phosphate buffered saline (PBS) and subsequently collected using the following method.3 HEK293T and RPE-1 cells were easily detached from the culture plate by trypsin treatment after which some DMEM medium was added. The cells were collected by pipetting and DMEM medium was removed by centrifuging. The cells were washed with cold PBS three times, after which they were centrifuged to remove PBS and then stored at –80 °C for further use or lysed in potassium phosphate buffer (K2HPO4-KH2PO4, 25 mM, pH 6.5, supplemented with 0.1% (v/v) Triton X-100 and protease inhibitor cocktail (EDTA-free, Roche, Basel, Switzerland)) by sonication with a Polytron PT 1300D sonicator (Kinematica, Luzern, Switzerland). After sonication, lysed mixtures were centrifuged at 10,000 x g for 3 min at 4°C, and the supernatants where desired β-glucosidases exist were used for the experiment.
2.5 4MU fluorogenic substrate assay for apparent IC50 determination
4MU fluorogenic substrate assays (using recombination human rhGBA1 or lysates of HEK293T cells) were conducted in 96-well plates at 37 °C. Samples were diluted with McIlvaine buffer (150 mM citric acid-Na2HPO4) to a final volume of 25 μL, at the appropriate pH for each enzyme. Assays were performed by incubating the samples with 100 μL 4-methylumbelliferyl-β-D-glucopyranoside substrate diluted in McIlvaine buffer for a period of 30 min. […]

The mark [1] stands for this setting: GBA1/GBA2 KO GBA3 OE HEK293T cell lysate, pH 6.0, n = 3 for β-D-Araf, n = 1 for α-L-Araf and β-L-Araf.

In the case of `CC1=CC(C)=[N+]2C1=C(CCCCc1cn(CCCCCCCCN3[C@@H]4[C@H](CO)[C@@H](O)[C@H](O)[C@@H]43)nn1)c1c(C)cc(C)n1[B-]2(F)F` (some centres unmarked) [ABP 3], the IC50 under setting [1] was more than 10 µM.

As for `COc1ccc(C2=[N+]3C(=C(CCCCc4cn(CCCCCCCCN5[C@@H]6[C@H](CO)[C@@H](O)[C@H](O)[C@@H]65)nn4)c4ccc(-c5ccc(OC)cc5)n4[B-]3(F)F)C=C2)cc1` (some centres unmarked) [ABP 4], the IC50 under setting [1] was more than 10 µM.

For `CN1/C(=C/C=C/C=C/C2=[N+](CCCCCC(=O)NCc3cn(CCCCCCCCN4[C@@H]5[C@H](CO)[C@@H](O)[C@H](O)[C@@H]54)nn3)c3ccccc3C2(C)C)C(C)(C)c2ccccc21` (some centres unmarked) [ABP 5], under setting [1], the IC50 came out at 1.52 ± 0.159 µM.

On to `O=C(CCCC[C@@H]1SC[C@@H]2NC(=O)N[C@@H]21)NCc1cn(CCCCCCCCN2[C@@H]3[C@H](CO)[C@@H](O)[C@H](O)[C@@H]32)nn1` (some centres unmarked) [ABP 6], for which the IC50 was more than 8 µM. Moreover, the IC50 under setting [1] was found to be 10.3 ± 1.9 µM.

Regarding `OC[C@@H]1[C@@H](O)[C@H](O)[C@@H]2N[C@H]12` [Compound 1, β-D-Arabinofuranosyl cyclitol aziridine], the IC50 was more than 50 µM. In addition, the IC50 under setting [1] was more than 50 µM.

In the case of `[N-]=[N+]=NCCCCCCCCN1[C@@H]2[C@H](CO)[C@@H](O)[C@H](O)[C@@H]21` (stereo partly drawn) [Compound 2, β-D-arabinofuranosyl cyclitol aziridine-azidooctyl], the IC50 under setting [1] came to 8.15 µM.
